Results: publication PMC117120 (BMC Biochemistry, 2002)
Numbering of substitutions follows the chain as printed. Values joined by “and” are separate entries in the source; they are usually repeats but may differ in a detail not shown here. Equal entries are not always repeated.

Legend:
[1] = molecular target: T1, Y140A mutant mouse 5-HT3ASR (Mus musculus, UniProt P23979, Y141A); test: Inhibition of [^3H]granisetron binding, Y140A receptor; settings: for relative increase in Ki, mutant vs wildtype: Y140A vs wildtype
T1 sequence (P23979 24-483 isoform P23979-2 Y141A): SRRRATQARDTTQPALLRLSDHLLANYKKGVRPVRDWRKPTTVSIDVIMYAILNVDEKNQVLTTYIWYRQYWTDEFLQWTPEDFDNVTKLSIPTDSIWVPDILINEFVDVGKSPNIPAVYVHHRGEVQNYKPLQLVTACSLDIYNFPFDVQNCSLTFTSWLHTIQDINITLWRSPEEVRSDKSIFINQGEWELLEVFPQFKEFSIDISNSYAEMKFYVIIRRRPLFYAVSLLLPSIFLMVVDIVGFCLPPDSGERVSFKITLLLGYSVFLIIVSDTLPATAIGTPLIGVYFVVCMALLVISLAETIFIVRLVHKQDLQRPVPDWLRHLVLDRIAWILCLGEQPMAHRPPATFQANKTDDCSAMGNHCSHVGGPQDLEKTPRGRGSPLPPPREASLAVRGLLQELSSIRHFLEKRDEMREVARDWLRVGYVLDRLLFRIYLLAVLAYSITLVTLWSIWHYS

[2] = molecular target: T2, Y142A mutant mouse 5-HT3ASR (Mus musculus, UniProt P23979, Y143A); test: Inhibition of [^3H]granisetron binding, Y142A receptor; settings: for relative increase in Ki, mutant vs wildtype: Y142A vs wildtype
T2 sequence (P23979 24-483 isoform P23979-2 Y143A): T1 sequence (P23979 24-483 isoform P23979-2 Y141A) with A118Y, Y120A

[3] = molecular target: T3, wildtype mouse 5-HT3ASR (Mus musculus, UniProt P23979); test: biochemical
T3 sequence (P23979 24-483 isoform P23979-2 limits assumed): T1 sequence (P23979 24-483 isoform P23979-2 Y141A) with A118Y

[4] = molecular target: T4, R146A mutant mouse 5-HT3ASR (Mus musculus, UniProt P23979, R147A); test: biochemical
T4 sequence (P23979 24-483 isoform P23979-2 R147A): T1 sequence (P23979 24-483 isoform P23979-2 Y141A) with A118Y, R124A

[5] = molecular target: T5, N151A mutant mouse 5-HT3ASR (Mus musculus, UniProt P23979, N152A); test: biochemical
T5 sequence (P23979 24-483 isoform P23979-2 N152A): T1 sequence (P23979 24-483 isoform P23979-2 Y141A) with A118Y, N129A

[6] = molecular target: T6, K153A mutant mouse 5-HT3ASR (Mus musculus, UniProt P23979, K154A); test: biochemical
T6 sequence (P23979 24-483 isoform P23979-2 K154A): T1 sequence (P23979 24-483 isoform P23979-2 Y141A) with A118Y, K131A

SMILES | Ki [1] | relative increase in Ki, mutant vs wildtype [1] | Ki [2] | relative increase in Ki, mutant vs wildtype [2] | Ki [3] | Ki [4] | Ki [5] | Ki [6]
COc1cc2c3cc1Oc1cc(ccc1O)C[C@@H]1c4c(cc(OC)c(O)c4Oc4ccc(cc4)C[C@@H]3N(C)CC2)CC[N+]1(C)C [d-tc, d-tubocurarine] | 300 ± 120 nM | 50 ± 12 fold and 50 fold | 39 ± 19 nM | 6.5 ± 1.5 fold and 6.5 fold | 6 ± 2.1 nM | 29 ± 4.9 nM | 9.3 ± 1.4 nM | 17 ± 3 nM
c1ccc(Cn2c(N3CCNCC3)nc3ccccc32)cc1 [lerisetron] | 2.1 ± 0.33 nM | 4.6 fold | 130 ± 28 nM | 160 ± 37 fold and 160 fold | 0.8 ± 0.19 nM | 2.3 ± 0.31 nM | 3.7 ± 0.62 nM | 3 ± 0.66 nM
